Data published in ChEMBL document CHEMBL2157909, “Design, synthesis, spectral and biological evaluation of novel 1-allyl substituted 2,6-diphenylpiperidin-4-ones and its derivatives of oximes/oxime ethers” (2012).
Converted amounts (≈) assume the structure as drawn.

What was measured:
Aspergillus flavus = experiment: Antifungal activity against Aspergillus flavus ATCC 525 after 72 to 96 hrs by two fold serial dilution method; assay type: functional
Penicillium chrysogenum = experiment: Antifungal activity against Penicillium chrysogenum ATCC 28089 after 72 to 96 hrs by two fold serial dilution method; assay type: functional
Pseudomonas = experiment: Antibacterial activity against Pseudomonas ATCC 27853 after 24 hrs by two fold serial dilution method; assay type: functional; details: ATCC 27853, 24 h
Bacillus subtilis = experiment: Antibacterial activity against Bacillus subtilis ATCC 530 after 24 hrs by two fold serial dilution method; assay type: functional; details: ATCC 530, 24 h
Fusarium oxysporum = experiment: Antifungal activity against Fusarium oxysporum ATCC 48112 after 72 to 96 hrs by two fold serial dilution method; assay type: functional
Escherichia coli = experiment: Antibacterial activity against Escherichia coli ATCC 26032 after 24 hrs by two fold serial dilution method; assay type: functional; details: ATCC 26032, 24 h
Staphylococcus aureus = experiment: Antibacterial activity against Staphylococcus aureus ATCC 25930 after 24 hrs by two fold serial dilution method; assay type: functional; details: ATCC 25930, 24 h
Salmonella typhi = experiment: Antibacterial activity against Salmonella typhi ATCC 25021 after 24 hrs by two fold serial dilution method; assay type: functional, Salmonella enterica subsp. enterica serovar Typhi; details: Salmonella enterica, ATCC 25021, 24 h
Rhizopus = experiment: Antifungal activity against Rhizopus sp. ATCC 2842 after 72 to 96 hrs by two fold serial dilution method; assay type: functional
Aspergillus niger = experiment: Antifungal activity against Aspergillus niger ATCC 635 after 72 to 96 hrs by two fold serial dilution method; assay type: functional
[1] = Ratio of MIC for Bacillus subtilis ATCC 530 to MIC for Salmonella typhi ATCC 25021; assay type: functional
[2] = Ratio of MIC for Pseudomonas ATCC 27853 to MIC for Salmonella typhi ATCC 25021; assay type: functional

## C=CCN1[C@@H](c2ccccc2)C(C)(C)/C(=N/O)C[C@H]1c1ccccc1 (relative stereo)
Aspergillus flavus
  MIC: 25 µg/mL (≈ 74.7 µM)
Penicillium chrysogenum
  MIC: 12.5 µg/mL (≈ 37.4 µM)
Pseudomonas
  MIC: 50 µg/mL (≈ 149 µM)
Bacillus subtilis
  MIC: 25 µg/mL (≈ 74.7 µM)
Fusarium oxysporum
  MIC: 50 µg/mL (≈ 149 µM)
Escherichia coli
  MIC: 100 µg/mL (≈ 299 µM)
Staphylococcus aureus
  MIC: 12.5 µg/mL (≈ 37.4 µM)
Salmonella typhi
  MIC: 100 µg/mL (≈ 299 µM)
Rhizopus
  MIC: 25 µg/mL (≈ 74.7 µM)
Aspergillus niger
  MIC: 25 µg/mL (≈ 74.7 µM)

## C=CCN1[C@@H](c2ccccc2)C/C(=N/O)C[C@H]1c1ccccc1 (relative stereo)
Aspergillus flavus
  MIC: 25 µg/mL (≈ 81.6 µM)
Penicillium chrysogenum
  MIC: 50 µg/mL (≈ 163 µM)
Pseudomonas
  MIC: 50 µg/mL (≈ 163 µM)
Bacillus subtilis
  MIC: 6.25 µg/mL (≈ 20.4 µM)
Fusarium oxysporum
  MIC: 50 µg/mL (≈ 163 µM)
Escherichia coli
  MIC: 25 µg/mL (≈ 81.6 µM)
Staphylococcus aureus
  MIC: 50 µg/mL (≈ 163 µM)
Salmonella typhi
  MIC: 100 µg/mL (≈ 326 µM)
Rhizopus
  MIC: 25 µg/mL (≈ 81.6 µM)
Aspergillus niger
  MIC: 12.5 µg/mL (≈ 40.8 µM)

## CN[C@@H]1[C@H](O[C@H]2[C@H](O[C@H]3[C@H](O)[C@@H](O)[C@H](N=C(N)N)[C@@H](O)[C@@H]3N=C(N)N)O[C@@H](C)[C@]2(O)C=O)O[C@@H](CO)[C@H](O)[C@H]1O [STREPTOMYCIN]
Pseudomonas
  MIC: 25 µg/mL (≈ 43 µM)
Bacillus subtilis
  MIC: 12.5 µg/mL (≈ 21.5 µM)
Escherichia coli
  MIC: 12.5 µg/mL (≈ 21.5 µM)
Staphylococcus aureus
  MIC: 50 µg/mL (≈ 86 µM)
Salmonella typhi
  MIC: 50 µg/mL (≈ 86 µM)

## C=CCN1[C@@H](c2ccccc2)C(C)(C)C(=O)C[C@H]1c1ccccc1 (relative stereo)
Aspergillus flavus
  MIC: 25 µg/mL (≈ 78.3 µM)
Penicillium chrysogenum
  MIC: 25 µg/mL (≈ 78.3 µM)
Pseudomonas
  MIC: 25 µg/mL (≈ 78.3 µM)
Bacillus subtilis
  MIC: 100 µg/mL (≈ 313 µM)
Fusarium oxysporum
  MIC: 50 µg/mL (≈ 157 µM)
Escherichia coli
  MIC: 25 µg/mL (≈ 78.3 µM)
Staphylococcus aureus
  MIC: 25 µg/mL (≈ 78.3 µM)
Salmonella typhi
  MIC: 12.5 µg/mL (≈ 39.1 µM)
Rhizopus
  MIC: 100 µg/mL (≈ 313 µM)
Aspergillus niger
  MIC: 50 µg/mL (≈ 157 µM)

## C=CCN1[C@H](c2ccccc2)CC(=O)[C@@H](C)[C@@H]1c1ccccc1 (relative stereo)
Aspergillus flavus
  MIC: 50 µg/mL (≈ 164 µM)
Penicillium chrysogenum
  MIC: 50 µg/mL (≈ 164 µM)
Pseudomonas
  MIC: 200 µg/mL (≈ 655 µM)
Bacillus subtilis
  MIC: 200 µg/mL (≈ 655 µM)
Fusarium oxysporum
  MIC: 100 µg/mL (≈ 327 µM)
Escherichia coli
  MIC: 100 µg/mL (≈ 327 µM)
Staphylococcus aureus
  MIC: 100 µg/mL (≈ 327 µM)
Salmonella typhi
  MIC: 50 µg/mL (≈ 164 µM)
Rhizopus
  MIC: 200 µg/mL (≈ 655 µM)
Aspergillus niger
  MIC: 50 µg/mL (≈ 164 µM)

## C=CCN1[C@H](c2ccccc2)[C@@H](C)/C(=N/O)[C@@H](C)[C@@H]1c1ccccc1 (relative stereo)
Aspergillus flavus
  MIC: 100 µg/mL (≈ 299 µM)
Penicillium chrysogenum
  MIC: 100 µg/mL (≈ 299 µM)
Pseudomonas
  MIC: 50 µg/mL (≈ 149 µM)
Bacillus subtilis
  MIC: 25 µg/mL (≈ 74.7 µM)
Fusarium oxysporum
  MIC: 50 µg/mL (≈ 149 µM)
Escherichia coli
  MIC: 50 µg/mL (≈ 149 µM)
Staphylococcus aureus
  MIC: 50 µg/mL (≈ 149 µM)
Salmonella typhi
  MIC: 100 µg/mL (≈ 299 µM)
Rhizopus
  MIC: 200 µg/mL (≈ 598 µM)
Aspergillus niger
  MIC: 50 µg/mL (≈ 149 µM)

## C=CCN1[C@H](c2ccc(OC)cc2)C/C(=N\OCc2ccccc2)[C@@H](C)[C@@H]1c1ccc(OC)cc1 (relative stereo)
Aspergillus flavus
  MIC: 100 µg/mL (≈ 212 µM)
Penicillium chrysogenum
  MIC: 50 µg/mL (≈ 106 µM)
Pseudomonas
  MIC: 6.25 µg/mL (≈ 13.3 µM)
Bacillus subtilis
  MIC: 50 µg/mL (≈ 106 µM)
Fusarium oxysporum
  MIC: 6.25 µg/mL (≈ 13.3 µM)
Escherichia coli
  MIC: 100 µg/mL (≈ 212 µM)
Staphylococcus aureus
  MIC: 12.5 µg/mL (≈ 26.6 µM)
Salmonella typhi
  MIC: 25 µg/mL (≈ 53.1 µM)
Rhizopus
  MIC: 25 µg/mL (≈ 53.1 µM)
Aspergillus niger
  MIC: 12.5 µg/mL (≈ 26.6 µM)

## C=CCN1[C@@H](c2ccccc2)C/C(=N/OCc2ccccc2)C[C@H]1c1ccccc1 (relative stereo)
Aspergillus flavus
  MIC: 100 µg/mL (≈ 252 µM)
Penicillium chrysogenum
  MIC: 100 µg/mL (≈ 252 µM)
Pseudomonas
  MIC: 200 µg/mL (≈ 504 µM)
Bacillus subtilis
  MIC: 25 µg/mL (≈ 63 µM)
Fusarium oxysporum
  MIC: 50 µg/mL (≈ 126 µM)
Escherichia coli
  MIC: 6.25 µg/mL (≈ 15.8 µM)
Staphylococcus aureus
  MIC: 50 µg/mL (≈ 126 µM)
Salmonella typhi
  MIC: 100 µg/mL (≈ 252 µM)
Rhizopus
  MIC: 50 µg/mL (≈ 126 µM)
Aspergillus niger
  MIC: 12.5 µg/mL (≈ 31.5 µM)

## C=CCN1[C@H](c2ccccc2)[C@@H](C)C(=O)[C@@H](C)[C@@H]1c1ccccc1
Aspergillus flavus
  MIC: 100 µg/mL (≈ 313 µM)
Penicillium chrysogenum
  MIC: 50 µg/mL (≈ 157 µM)
Pseudomonas
  MIC: 50 µg/mL (≈ 157 µM)
Bacillus subtilis
  MIC: 25 µg/mL (≈ 78.3 µM)
Fusarium oxysporum
  MIC: 50 µg/mL (≈ 157 µM)
Escherichia coli
  MIC: 100 µg/mL (≈ 313 µM)
Staphylococcus aureus
  MIC: 12.5 µg/mL (≈ 39.1 µM)
Salmonella typhi
  MIC: 100 µg/mL (≈ 313 µM)
Rhizopus
  MIC: 200 µg/mL (≈ 626 µM)
Aspergillus niger
  MIC: 100 µg/mL (≈ 313 µM)

## C=CCN1[C@H](c2ccccc2)C/C(=N\OCc2ccccc2)[C@@H](CC)[C@@H]1c1ccccc1 (relative stereo)
Aspergillus flavus
  MIC: 100 µg/mL (≈ 236 µM)
Penicillium chrysogenum
  MIC: 12.5 µg/mL (≈ 29.4 µM)
Pseudomonas
  MIC: 100 µg/mL (≈ 236 µM)
Bacillus subtilis
  MIC: 50 µg/mL (≈ 118 µM)
Fusarium oxysporum
  MIC: 25 µg/mL (≈ 58.9 µM)
Escherichia coli
  MIC: 6.25 µg/mL (≈ 14.7 µM)
Staphylococcus aureus
  MIC: 200 µg/mL (≈ 471 µM)
Salmonella typhi
  MIC: 25 µg/mL (≈ 58.9 µM)
Rhizopus
  MIC: 12.5 µg/mL (≈ 29.4 µM)
Aspergillus niger
  MIC: 50 µg/mL (≈ 118 µM)

## C=CCN1[C@H](c2ccc(Cl)cc2)CC(=O)[C@@H](C)[C@@H]1c1ccc(Cl)cc1 (relative stereo)
Aspergillus flavus
  MIC: 25 µg/mL (≈ 66.8 µM)
Penicillium chrysogenum
  MIC: 6.25 µg/mL (≈ 16.7 µM)
Pseudomonas
  MIC: 50 µg/mL (≈ 134 µM)
Bacillus subtilis
  MIC: 50 µg/mL (≈ 134 µM)
Fusarium oxysporum
  MIC: 12.5 µg/mL (≈ 33.4 µM)
Escherichia coli
  MIC: 12.5 µg/mL (≈ 33.4 µM)
Staphylococcus aureus
  MIC: 25 µg/mL (≈ 66.8 µM)
Salmonella typhi
  MIC: 12.5 µg/mL (≈ 33.4 µM)
Rhizopus
  MIC: 25 µg/mL (≈ 66.8 µM)
Aspergillus niger
  MIC: 50 µg/mL (≈ 134 µM)

## C=CCN1[C@H](c2ccc(C)cc2)CC(=O)[C@@H](C)[C@@H]1c1ccc(C)cc1 (relative stereo)
[1]
  Ratio: 3
Aspergillus flavus
  MIC: 50 µg/mL (≈ 150 µM)
Penicillium chrysogenum
  MIC: 25 µg/mL (≈ 75 µM)
Pseudomonas
  MIC: 50 µg/mL (≈ 150 µM)
Bacillus subtilis
  MIC: 100 µg/mL (≈ 300 µM)
Fusarium oxysporum
  MIC: 25 µg/mL (≈ 75 µM)
[2]
  Ratio: 2
Escherichia coli
  MIC: 25 µg/mL (≈ 75 µM)
Staphylococcus aureus
  MIC: 50 µg/mL (≈ 150 µM)
Salmonella typhi
  MIC: 12.5 µg/mL (≈ 37.5 µM)
Rhizopus
  MIC: 6.25 µg/mL (≈ 18.7 µM)
Aspergillus niger
  MIC: 50 µg/mL (≈ 150 µM)
